In patent US11524011B2, “H3K27 demethylase inhibitors in pediatric and juvenile osteoporosis” (THE JOHNS HOPKINS UNIVERSITY, priority 2017, dated 2022):
“Also recorded” adds a separate entry of the source.

Tests used:
BALB/c mice [1] = experiment: GSK-J4 in glucocorticoid (MPS)-treated young BALB/c mice: body weight, tail length, bone loss (μCT), angiogenesis and osteogenesis
Experimental: FIGS. 10A-10B. […] Body weight (10A) and Tail length (10B) were monitored at 2, 3, and 4 weeks after treatment. FIGS. 11A-11F. […] (11A) Representative μCT images of distal femur. Quantitative analyses of Femur length (11B), Trabecular bone volume fraction (BV/TV) (11C), trabecular number (Tb.N) (11D), trabecular thickness (Tb.Th) (11E), and trabecular separation (Tb.Sp) (11F). […] FIGS. 12A-12F. […] (12A-B) Double-immunofluorescence staining of femur sections was performed using antibodies against nestin (green) and H3K27me3 (red) (12A). Quantification of the percentage of nestin^+ cells that express H3K27me3 in the primary spongiosa (12B). Immunofluorescence staining of femur sections using antibody against osterix (Osx) (12C). Quantitative analysis of Osx^+ cells in the primary spongiosa (12D). Double-immunofluorescence staining of femur sections was performed using antibodies against CD31 (green) and endomucin (Emcn) (red) (12E). […] DAPI stains nuclei blue. Seven mice per group. GP, growth plate. PS, primary spongiosa. Mice femora were dissected, fixed overnight in 70% ethanol, and analyzed by high-resolution μCT (Skyscan 1172, Bruker MicroCT, Kontich, Belgium). We used NRecon image reconstruction software, version 1.6, (Bruker MicroCT), CTAn data-analysis software, version 1.9 (Bruker MicroCT), and CTVol 3-dimensional model visualization software, version 2.0, (Bruker MicroCT) to analyze parameters of the trabecular bone in the metaphysis and cortical bone in the mid-diaphysis. The scanner was set at 50 kVp, […]. Cross-sectional images of the distal femur were used to perform 3-dimensional histomorphometric analysis of trabecular bone. The sample area selected for analyses was a 2-mm length of the metaphyseal secondary spongiosa, originating 1.0 mm below the epiphyseal growth plate and extending caudally. Cortical morphometry was analyzed within a 600-μm long section at mid-diaphysis of the femur and included measurements of average thickness and cross-sectional area. […] Nuclei were counterstained with DAPI (Sigma).

BALB/c mice [2] = conditions: MPS daily for 2 weeks; compared to controls
Experimental: Four-week-old BALB/c mice were treated with methylprednisolone (MPS) or vehicle daily for 2 weeks. (8A) A schematic illustration of the steps to isolate CD144^+ vascular endothelial cells from femoral metaphyses. […] (8D-8G) Quantitative RT-PCR analysis of ki67 (8D) p16^INK4a (8E), p53 (8F), and p21^CIP1 (8G) expression in the sorted CD144^+ cells. n=3, Data are represented as mean±s.e.m. *p<0.01 as determined by Student's t-tests.

[3] = system: childhood cancer diffuse intrinsic pontine glioma; conditions: preclinical studies; cited from earlier work
Nestin-GFP mice [4] = experiment: Prednisolone treatment of early pubertal Nestin-GFP mice: cellular senescence / nestin expression in femoral primary spongiosa; assay type: in vivo, mouse
Experimental: (§1) FIGS. 4A-4L. Cellular Senescence in Primary Spongiosa of Long Bone is Decelerated in Growth Hormone (GH)-Treated Mice and Accelerated in Prednisolone-Treated Mice. (4A-4F) Four week-old Nestin-GFP mice were treated with recombinant mouse-GH (5 mg/kg·B·W.) or Vehicle by daily intraperitoneal injection for 4 weeks. Immunofluorescence staining of femur sections were performed using antibodies against GFP (green) (4A) or Ki67 (red) (4E). Images in upper panels in (4A) and (4E) are lower power with boxes outlining the area of higher power in lower panels. Quantification of the number of GFP+ (4B) or Ki67+ (4F) cells in femoral primary spongiosa. […] (4G-4L) Two-week-old Nestin-GFP mice were treated with prednisolone (10 mg/m^2/day) or Vehicle by daily intraperitoneal injection for 2 weeks. Immunofluorescence staining of femur sections were performed using antibodies against GFP (green) (4G) or Ki67 (red) (4K). Images in upper panels in (4G) and (4K) are lower power with boxes outlining the area of higher power in lower panels. Quantification of the number of GFP+ (4H) or Ki67+ (4L) cells in femoral primary spongiosa. […] Five mice per group. […] GP, growth plate.
(§2) For flow cytometric analysis and sorting of CD45-GFP− and CD45-GFP+ mesenchymal progenitor cells (MPCs) from femoral metaphysis, we dissected the femora free of soft tissues from Nestin-GFP mice. The epiphysis was removed and only the 3-mm-long metaphysis regions were processed. The bone was then digested with a protease solution (2 mg/mL collagenase A and 2.5 mg/mL trypsin in phosphate buffered saline [PBS]) for 20 minutes to remove the periosteum and periosteal progenitors (step I). […]
One of the major causes of secondary osteoporosis in children is the use of glucocorticoids for treatment of underlying chronic medical problems, such as autoimmune or inflammatory disorders. […] We thus assessed whether glucocorticoid-treated early pubertal mice display premature cellular senescence in primary spongiosa by injecting mice daily with prednisolone from age 2 weeks to 4 weeks.

Nestin-GFP mice [5] = experiment: Growth hormone treatment of pubertal Nestin-GFP mice: cellular senescence / nestin expression in femoral primary spongiosa; assay type: in vivo, mouse
Experimental: as §1
as §2, with “I). The bones were cut into small pieces and digested in the protease solution for another 1 hour (C, step II).” for “I).”
We tested whether the progression of the cellular senescence in primary spongiosa of long bone, as indicated by loss of nestin expression, is associated with bone growth/accrual. […] We assessed changes in nestin expression in the femoral primary spongiosa in pubertal mice after administration of recombinant GH. […]

[6] = MPS plus GSK-J4 10 mg/kg b.w. daily for 4 weeks, compared to MPS alone and to controls
[7] = summary statement, glucocorticoid-treated mice

C[C@H]1C[C@@H]2[C@H]([C@@H](O)C[C@@]3(C)[C@H]2CC[C@]3(O)C(=O)CO)[C@@]2(C)C=CC(=O)C=C12 [MPS, methylprednisolone]
tail length (BALB/c mice [1]; MPS alone daily, 2, 3 and 4 weeks, compared with controls): significantly shortened
body weight (BALB/c mice [1]; MPS alone daily, monitored at 2, 3 and 4 weeks after treatment): no significant effect
ki67 expression in sorted CD144+ cells (quantitative RT-PCR) (BALB/c mice [2]): less
p16^INK4a expression in sorted CD144+ cells (quantitative RT-PCR) (BALB/c mice [2]): increased
p21^CIP1 expression in sorted CD144+ cells (quantitative RT-PCR) (BALB/c mice [2]): increased
p53 expression in sorted CD144+ cells (quantitative RT-PCR) (BALB/c mice [2]): increased

CCOC(=O)CCNc1cc(N2CCc3ccccc3CC2)nc(-c2ccccn2)n1 [GSK-J4, N-[2-(2-Pyridinyl)-6-(1,2,4,5-tetrahydro-3H-3-benzazepin-3-yl)-4-pyrimidinyl]-β-alanine ethyl ester]
bone loss phenotype induced by MPS (μCT of distal femur: femur length, BV/TV, Tb.N, Tb.Th, Tb.Sp) (BALB/c mice [1]; MPS plus GSK-J4 10 mg/kg b.w. daily for 4 weeks, 10 mg/kg): at least partially reversed; also recorded: rescued
angiogenesis in femoral primary spongiosa (CD31 / Emcn fluorescence intensities) (BALB/c mice [1]; [6]): greatly improve
osteogenesis in femoral primary spongiosa (Osx+ cells) (BALB/c mice [1]; [6]): greatly improve
MPS-induced shortening of tail length (BALB/c mice [1]; concurrent treatment, MPS plus GSK-J4 10 mg/kg b.w. daily, 2, 3 and 4 weeks): abolished
glucocorticoid-induced growth retardation (BALB/c mice [1]; summary statement): rescued
H3K27 methylation (BALB/c mice [1]; [7]): elevated
early onset cellular senescence (BALB/c mice [1]; [7]): blocked
growth of childhood cancer diffuse intrinsic pontine glioma [3]: effectively inhibit

C[C@]12C=CC(=O)C=C1CC[C@@H]1[C@@H]2[C@@H](O)C[C@@]2(C)[C@H]1CC[C@]2(O)C(=O)CO [prednisolone]
senescence of the cells in primary spongiosa (Nestin-GFP mice [4]; mice treated with prednisolone): accelerated
Ki67+ proliferative cells in femoral primary spongiosa (Nestin-GFP mice [4]; prednisolone 10 mg/m^2/day daily i.p. for 2 weeks, vs vehicle): reduced
number of Nestin-GFP+ cells in femoral primary spongiosa (immunofluorescence staining and flow cytometry) (Nestin-GFP mice [4]; prednisolone 10 mg/m^2/day daily i.p. from age 2 weeks to 4 weeks, relative to vehicle-treated mice): significantly reduced

B1: GH: recombinant mouse growth hormone (protein, UniProt P06880 27-216, looked up)
Somatotropin: FPAMPLSSLFSNAVLRAQHLHQLAADTYKEFERAYIPEGQRYSIQNAQAAFCFSETIPAPTGKEEAQQRTDMELLRFSLLLIQSWLGPVQFLSRIFTNSLMFGTSDRVYEKLKDLEEGIQALMQELEDGSPRVGQILKQTYDKFDANMRSDDALLKNYGLLSCFKKDLHKAETYLRVMKCRRFVESSCAF
percentage of Ki67+ proliferative cells in primary spongiosa (Nestin-GFP mice [5]; GH 5 mg/kg daily i.p. for 4 weeks, relative to vehicle-treated mice): higher
senescence of the cells in primary spongiosa (Nestin-GFP mice [5]; mice treated with growth hormone): reduced
Nestin-GFP+ cells in primary spongiosa (immunofluorescence staining) (Nestin-GFP mice [5]; recombinant mouse-GH 5 mg/kg B.W. daily intraperitoneal injection for 4 weeks from 4 weeks of age, vs vehicle-treated mice): significantly increased
